{"source": "patent US7417156B2", "about": "“Orally active, antimalarial, anticancer, artemisinin-derived trioxane dimers” (Johns Hopkins University, priority 2002, dated 2008)", "key": {"CCRF-CEM": {"test_system": "CCRF-CEM", "test": "NCI 60 cell line panel screen (SRB)", "type": "cell-based, human", "details": "CCRF-CEM (Leukemia)"}, "K-562": {"test_system": "K-562", "test": "NCI 60 cell line panel screen (SRB)", "type": "cell-based, human"}, "MOLT-4": {"test_system": "MOLT-4", "description": "Growth Inhibition. […] The screening assay is performed on 96-well microtitre plates. Relatively high initial inoculation densities are used, in order to permit measurement of “time-zero” values and to enhance the screen's ability to detect and provide some differentiation between growth inhibition and cytotoxic response parameters. […] The inoculated microtitre plates are pre-incubated for 24 hours at 37° C. prior to drug additions. The five drug dilutions tested routinely range from 10^−4 to 10^−8 molar. Higher or lower concentration ranges may be selected on a non-routine basis if appropriate solubility and/or prior biological information or other screening data so dictate. Duplicate wells are prepared for all concentrations, (concentration is often denoted by placing brackets around a number); “time-zero” and “no drug” controls are also provided for each test. The minimum amount of compound required for a one-time evaluation in the routine screen can be calculated from the knowledge that each test requires a total of approximately 40 ml (0.04 liter) of cell culture medium containing the highest desired drug concentration. […] After a 48 hour incubation (37° C.) with the test compound, the cells are fixed in situ to the bottoms of the microtitre wells by addition of 50 μl of either 50% trichloroacetic acid (for adherent cell lines) or 80% trichloroacetic acid (for settled cell suspension lines), followed by incubation for 60 minutes at 4° C. The cellular protein in each well is assayed using a sulforhodamine B (SRB) stain procedure. Briefly, after discarding the supernatants, the microtitre plates are washed 5 times with deionized water and air-dried. […] Unbound SRB is removed by washing 5 times with 1% acetic acid. […] SRB is a bright pink anionic dye which, in dilute acetic acid, binds electrostatically to the basic amino acids of TCA-fixed cells. Cryopreserved master stocks of all the lines are maintained, and cultures used for screening are replaced from the master stock after no more than twenty passages in the screening laboratory. The cell line panel consists of 60 lines, organized into nine, disease-related subpanels including leukemia, non-small-cell lung cancer, colon, CNS, melanoma, ovarian, renal, prostate and breast cancers.\nAt this value the increase from time tzero, in the number or mass of cells in the test well is only 50% as much as the corresponding increase in the control well during this period of the experiment, see Table III. A drug effect of this intensity is interpreted as primary growth inhibition.\nAt this value the number or mass of cells in the well at the end of the experiment equals the number or mass of cells in the well at time tzero, see Table IV. A drug effect of this intensity is regarded as cytostasis.\nAt this value, the number or mass of cells in the test well at the end of the experiment is half that at time tzero, see Table V. This is interpreted as cytotoxicity.\nDose response curves, shown in the above mentioned Figures, are obtained by exposing various cancer cell lines to compounds having a known concentration ([log10M]), as discussed in detail above, and then plotting the percentage growth of each cell line for each concentration. […] Percentage growth is determined by dividing the number or mass of cells in the test well by the number or mass of cells in a control well. […] As discussed previously, the five drug dilutions routinely tested range from 10^−4 to […]."}, "RPMI-8226": {"test_system": "RPMI-8226", "test": "NCI 60 cell line panel screen (SRB)", "type": "cell-based, human"}, "HOP-62": {"test_system": "HOP-62", "test": "NCI 60 cell line panel screen (SRB)", "type": "cell-based, human"}, "NCI-H23": {"test_system": "NCI-H23", "test": "NCI 60 cell line panel screen (SRB)", "type": "cell-based, human"}, "SNB-75": {"test_system": "SNB-75", "test": "NCI 60 cell line panel screen (SRB)", "type": "cell-based, human"}, "SK-MEL-2": {"test_system": "SK-MEL-2", "test": "NCI 60 cell line panel screen (SRB)", "type": "cell-based, human"}, "SK-MEL-28": {"test_system": "SK-MEL-28", "test": "NCI 60 cell line panel screen (SRB)", "type": "cell-based, human"}, "UACC-257": {"test_system": "UACC-257", "test": "NCI 60 cell line panel screen (SRB)", "type": "cell-based, human"}, "OVCAR-8": {"test_system": "OVCAR-8", "test": "NCI 60 cell line panel screen (SRB)", "type": "cell-based, human"}, "CAKI-1": {"test_system": "CAKI-1", "test": "NCI 60 cell line panel screen (SRB)", "type": "cell-based, human"}, "RXF 393": {"test_system": "RXF 393", "test": "NCI 60 cell line panel screen (SRB)", "type": "cell-based, human"}, "PC-3": {"test_system": "PC-3", "test": "NCI 60 cell line panel screen (SRB)", "type": "cell-based, human"}, "MDA-MB231/ATCC": {"test_system": "MDA-MB231/ATCC", "test": "NCI 60 cell line panel screen (SRB)", "type": "cell-based, human"}, "MDA-MB-435": {"test_system": "MDA-MB-435", "test": "NCI 60 cell line panel screen (SRB)", "type": "cell-based, human"}, "BT-549": {"test_system": "BT-549", "test": "NCI 60 cell line panel screen (SRB)", "type": "cell-based, human"}}, "data": [{"smiles": "CC1CCC2C(C)C(CC(CO)CC3OC4OC5(C)CCC6C(C)CCC(C3C)C46OO5)OC3OC4(C)CCC1C32OO4", "note": "(centres unmarked) [Compound 4, bis-trioxane primary alcohol]", "values": [{"measurement": "Log10LC50", "setting": "CCRF-CEM; LC50: PG=−50", "result": ">−4.00", "unit": "log10M"}, {"measurement": "Log10TGI50", "setting": "CCRF-CEM; TGI: PG=0", "result": "−4.66", "unit": "log10M"}, {"measurement": "Log10LC50", "setting": "K-562; K-562 (Leukemia), LC50: PG=−50", "result": ">−4.00", "unit": "log10M"}, {"measurement": "Log10TGI50", "setting": "K-562; K-562 (Leukemia), TGI: PG=0", "result": ">−4.00", "unit": "log10M"}, {"measurement": "Log10GI50", "setting": "K-562; Leukemia, K-562", "result": "−7.91"}, {"measurement": "concentration for cytotoxicity (percentage growth −50)", "setting": "MOLT-4", "result": "greater than 10^−4 M"}, {"measurement": "Log10GI50", "setting": "MOLT-4; Leukemia, MOLT-4", "result": "−7.92"}, {"measurement": "Log10LC50", "setting": "MOLT-4; MOLT-4 (Leukemia), LC50: PG=−50", "result": ">−4.00", "unit": "log10M"}, {"measurement": "Log10TGI50", "setting": "MOLT-4; MOLT-4 (Leukemia), TGI: PG=0", "result": ">−4.00", "unit": "log10M"}, {"measurement": "Log10GI50", "setting": "RPMI-8226; Leukemia, RPMI-8226", "result": "<−8.00"}, {"measurement": "Log10LC50", "setting": "RPMI-8226; RPMI-8226 (Leukemia), LC50: PG=−50", "result": ">−4.00", "unit": "log10M"}, {"measurement": "Log10TGI50", "setting": "RPMI-8226; RPMI-8226 (Leukemia), TGI: PG=0", "result": "−6.91", "unit": "log10M"}, {"measurement": "Log10LC50", "setting": "HOP-62; HOP-62 (Non-Small Cell Lung Cancer), LC50: PG=−50", "result": "−4.20", "unit": "log10M"}, {"measurement": "Log10TGI50", "setting": "HOP-62; HOP-62 (Non-Small Cell Lung Cancer), TGI: PG=0", "result": "−4.56", "unit": "log10M"}, {"measurement": "Log10GI50", "setting": "HOP-62; Non-Small Cell Lung Cancer, HOP-62", "result": "−4.92"}, {"measurement": "Log10LC50", "setting": "NCI-H23; NCI-H23 (Non-Small Cell Lung Cancer), LC50: PG=−50", "result": "−4.49", "unit": "log10M"}, {"measurement": "Log10GI50", "setting": "NCI-H23; Non-Small Cell Lung Cancer, NCI-H23", "result": "−7.84"}, {"measurement": "Log10GI50", "setting": "SNB-75; CNS Cancer, SNB-75", "result": "−4.99"}, {"measurement": "Log10LC50", "setting": "SNB-75; SNB-75 (CNS Cancer), LC50: PG=−50", "result": "−4.12", "unit": "log10M"}, {"measurement": "Log10TGI50", "setting": "SNB-75; SNB-75 (CNS Cancer), TGI: PG=0", "result": "−4.55", "unit": "log10M"}, {"measurement": "Log10GI50", "setting": "SK-MEL-2; Melanoma, SK-MEL-2", "result": "−7.33"}, {"measurement": "Log10LC50", "setting": "SK-MEL-2; SK-MEL2 (Melanoma), LC50: PG=−50", "result": "−4.46", "unit": "log10M"}, {"measurement": "Log10TGI50", "setting": "SK-MEL-2; SK-MEL-2 (Melanoma), TGI: PG=0", "result": "−4.92", "unit": "log10M"}, {"measurement": "Log10GI50", "setting": "SK-MEL-28; Melanoma, SK-MEL-28", "result": "−4.95"}, {"measurement": "Log10LC50", "setting": "SK-MEL-28; SK-MEL-28 (Melanoma), LC50: PG=−50", "result": "−4.12", "unit": "log10M"}, {"measurement": "Log10TGI50", "setting": "SK-MEL-28; SK-MEL-28 (Melanoma), TGI: PG=0", "result": "−4.54", "unit": "log10M"}, {"measurement": "Log10GI50", "setting": "UACC-257; Melanoma, UACC-257", "result": "−7.31"}, {"measurement": "Log10LC50", "setting": "UACC-257; UACC-257 (Melanoma), LC50: PG=−50", "result": "−4.30", "unit": "log10M"}, {"measurement": "Log10TGI50", "setting": "UACC-257; UACC-257 (Melanoma), TGI: PG=0", "result": "−4.71", "unit": "log10M"}, {"measurement": "Log10LC50", "setting": "OVCAR-8; OVCAR-8 (Ovarian Cancer), LC50: PG=−50", "result": "−4.03", "unit": "log10M"}, {"measurement": "Log10TGI50", "setting": "OVCAR-8; OVCAR-8 (Ovarian Cancer), TGI: PG=0", "result": "−4.69", "unit": "log10M"}, {"measurement": "Log10GI50", "setting": "OVCAR-8; Ovarian Cancer, OVCAR-8", "result": "−7.33"}, {"measurement": "Log10LC50", "setting": "CAKI-1; CAKI-1 (Renal Cancer), LC50: PG=−50", "result": "−4.38", "unit": "log10M"}, {"measurement": "Log10TGI50", "setting": "CAKI-1; CAKI-1 (Renal Cancer), TGI: PG=0", "result": "−4.84", "unit": "log10M"}, {"measurement": "Log10GI50", "setting": "CAKI-1; Renal Cancer, CAKI-1", "result": "−7.05"}, {"measurement": "Log10LC50", "setting": "RXF 393; RXF 393 (Renal Cancer), LC50: PG=−50", "result": "−4.01", "unit": "log10M"}, {"measurement": "Log10TGI50", "setting": "RXF 393; RXF 393 (Renal Cancer), TGI: PG=0", "result": "−4.41", "unit": "log10M"}, {"measurement": "Log10GI50", "setting": "RXF 393; Renal Cancer, RXF 393", "result": "−4.80"}, {"measurement": "Log10LC50", "setting": "PC-3; PC-3 (Prostate Cancer), LC50: PG=−50", "result": "−4.34", "unit": "log10M"}, {"measurement": "Log10TGI50", "setting": "PC-3; PC-3 (Prostate Cancer), TGI: PG=0", "result": "−4.89", "unit": "log10M"}, {"measurement": "Log10GI50", "setting": "PC-3; Prostate Cancer, PC-3", "result": "<−8.00"}, {"measurement": "Log10GI50", "setting": "MDA-MB231/ATCC; Breast Cancer, MDA-MB231/ATCC", "result": "−5.40"}, {"measurement": "Log10LC50", "setting": "MDA-MB231/ATCC; MDA-MB231/ATCC (Breast Cancer), LC50: PG=−50", "result": ">−4.00", "unit": "log10M"}, {"measurement": "Log10TGI50", "setting": "MDA-MB231/ATCC; MDA-MB231/ATCC (Breast Cancer), TGI: PG=0", "result": "−4.33", "unit": "log10M"}, {"measurement": "Log10GI50", "setting": "MDA-MB-435; Breast Cancer, MDA-MB-435", "result": "−7.50"}, {"measurement": "Log10LC50", "setting": "MDA-MB-435; MDA-MB-435 (Breast Cancer), LC50: PG=−50", "result": "−4.30", "unit": "log10M"}, {"measurement": "Log10TGI50", "setting": "MDA-MB-435; MDA-MB-435 (Breast Cancer), TGI: PG=0", "result": "−4.78", "unit": "log10M"}, {"measurement": "Log10LC50", "setting": "BT-549; BT-549 (Breast Cancer), LC50: PG=−50", "result": "−4.31", "unit": "log10M"}, {"measurement": "Log10TGI50", "setting": "BT-549; BT-549 (Breast Cancer), TGI: PG=0", "result": "−4.73", "unit": "log10M"}, {"measurement": "Log10GI50", "setting": "BT-549; Breast Cancer, BT-549", "result": "−7.11"}]}]}
